Assay results published in patent US12522597B2, “Methods and compositions for modulating splicing” (Skyhawk Therapeutics, Inc., priority 2019, dated 2026).
pEC50: −log10 of the molar value. Like-named read-outs stand apart in the source and are kept apart here.

Assays:
[1] = system: Huntingtin (HTT) transcripts; experiment: Quantitative splicing assay (HTT), qPCR; format: cell-based; conditions: Homo sapiens, GM04724 (CAG 70/20) Huntington's disease patient lymphoblasts, 24 h
Procedure: GM04724 (CAG 70/20) Huntington's disease patient lymphoblasts (Coriell) are plated in 96-wel v-bottom plates at 50,000 cells/well. Immediately after plating, cells are dosed with compound for 24 h at concentrations ranging from 2.5 uM to 0.15 nM (0.1% DMSO). Treated cells are lysed and cDNA synthesized using the Fast Advanced Cells-to-Ct kit (Thermofisher A35378) according to the manufacturer's instructions. 2 uL of each cDNA are used in qPCR reactions to confirm the compound-induced inclusion of a cryptic exon within intron 49 of the Huntingtin (HTT) transcripts. The qPCR reactions are prepared in 384-well plates in 10 uL volume, using TaqMan™ Fast Advanced Master Mix [ThermoFisher; 4444965] with primers and probes shown in the table below. Reactions are run in a Quant Studio 6 qPCR instrument with default settings.

mHTT protein = mHTT protein assay (2B7-MW1, Mesoscale Discovery); format: cell-based, human; conditions: GM04724 (CAG 70/20) Huntington's disease patient lymphoblast cells, 48 hours, 2B7-MW1 MSD; read-out: HTT Potency - Protein EC50 mHTT (average)
Procedure, shortened: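 GM04724 Huntington's patient lymphoblasts (CAG 70/20) were treated for 48 h at 10 μM to 0.6 nM. mHTT was quantified by 2B7-MW1 MSD immunoassay, whose signal depends on polyQ expansion and HTT fragment size. Viability was run on a parallel plate by CellTiter-Glo.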

[2] = system: MDR1-MDCK cell monolayers; experiment: MDCK-MDR1 permeability assay (BBB penetration potential); format: in vitro ADME; conditions: dog, MDCK-MDR1, 120 min, 5 μM, pH 7.4
Procedure: (§1) Each determination is performed in duplicate. […] Analytical conditions are outlined below.

MDR1 = experiment: as above; format: in vitro ADME; conditions: dog; for efflux ratio at 120 min, 5 μM: MDCK-MDR1, pH 7.4, MDCK-MDR1: Efflux; for Papp A→B at 120 min, 5 μM: MDCK-MDR1, pH 7.4, MDCK-MDR1: Papp A-B; for Papp B→A at 120 min, 5 μM: MDCK-MDR1, pH 7.4, MDCK-MDR1: Papp B-A
Procedure: as §1

[3] = qPCR HTTex49_50, read-out: HTT Potency - Splicing: E49-50 EC50 (average)
[4] = qPCR cryptic exon 49b inclusion, read-out: HTT Potency - Splicing: E49b EC50 (average)

Row | SMILES | pEC50 [1, 3] | pEC50 [1, 4] | pEC50 (mHTT protein) | MDCK-MDR1: % Recov A-B [2] [%] | MDCK-MDR1: % Recov B-A [2] [%] | efflux ratio at 120 min, 5 μM (MDR1) | Papp A→B at 120 min, 5 μM (MDR1) [×10⁻⁶ cm/s] | Papp B→A at 120 min, 5 μM (MDR1) [×10⁻⁶ cm/s] | MDCK-MDR1: Efflux [2] | MDCK-MDR1: Papp A-B [2] | MDCK-MDR1: Papp B-A [2]
1 | O=c1cc(-c2ccc(-c3ccc(O[C@H]4C[C@@H]5CCC[C@@H](N5)[C@H]4F)nn3)c(O)c2)cc[nH]1 (single isomer, unassigned) [53-ENT2] | 6.30 to 7.00 | 6.30 to 7.00 | 6.30 to 7.00 | 104 | 103 | 106 | 0.22 | 23.2 |  |  | 
2 | Oc1cc(-c2cn[nH]c2)ccc1-c1ccc(O[C@@H]2C[C@H]3CC(F)(F)[C@@H](C2)N3)nn1 (single isomer, unassigned) [46-ENT2] | 6.30 to 7.00 | 6.30 to 7.00 | 6.30 to 7.00 | 72 | 83 | 3 | 14.2 | 43.2 |  |  | 
3 | Cn1ccc2cc(O)c(-c3ccc(O[C@H]4C[C@]5(C)CC[C@@](C)(N5)[C@H]4F)nn3)cc2c1=O (single isomer, unassigned) [130-ENT1] | 7.00 to 7.29 | 7.30 to 7.80 | 7.82 to 11.00 | 78 | 80 | 6 | 7.86 | 43.7 |  |  | 
4 | Cn1cc(-c2ccc(-c3ccc(O[C@H]4C[C@]5(C)CCC[C@@](C)(N5)[C@H]4F)nn3)c(O)c2)cn1 (single isomer, unassigned) [154-ENT1] | 7.30 to 7.80 | 7.82 to 11.00 | 7.30 to 7.80 | 73 | 87 | 4 | 9.33 | 37.7 |  |  | 
5 | Cn1cc(-c2ccc(-c3ccc(O[C@@H]4C[C@H]5CCC[C@H](N5)[C@@H]4F)nn3)c(O)c2)oc1=O (single isomer, unassigned) [97-ENT1] | 7.30 to 7.80 | 7.30 to 7.80 | 7.82 to 11.00 | 83 | 78 | 14 | 3.67 | 50.4 |  |  | 
6 | Cn1ccc2cc(O)c(-c3ccc(O[C@@H]4C[C@H]5CC[C@H](N5)[C@@H]4F)nn3)cc2c1=O (single isomer, unassigned) [129-ENT2] | 7.00 to 7.29 | 7.30 to 7.80 | 7.82 to 11.00 | 72 | 79 | 9 | 4.94 | 45.7 |  |  | 
7 | Cn1cc(-c2ccc(-c3ccc(O[C@H]4C[C@@H]5CCC[C@@H](N5)[C@H]4F)nn3)c(O)c2F)cn1 (single isomer, unassigned) [119-ENT2] | 7.30 to 7.80 | 7.30 to 7.80 | 7.00 to 7.29 | 59 | 64 | 3 | 9.17 | 29.4 |  |  | 
8 | Cn1cc(-c2cc(O)c(-c3ccc(O[C@@H]4C[C@H]5CCC[C@H](N5)[C@@H]4F)nn3)c(F)c2)cn1 (single isomer, unassigned) [118-ENT1] | 7.00 to 7.29 | 7.00 to 7.29 | 7.00 to 7.29 | 52 | 80 | 5 | 6.21 | 33.3 |  |  | 
9 | Oc1cc(-c2cn[nH]c2)ccc1-c1ccc(O[C@H]2C[C@@H]3CC[C@@H](N3)[C@@H]2F)nn1 (single isomer, unassigned) [43-ENT1] | 7.30 to 7.80 | 7.30 to 7.80 | 7.82 to 11.00 | 76 | 79 | 7 | 7.44 | 48.9 |  |  | 
10 | C[C@]12CCC[C@](C)(N1)[C@H](F)[C@H](Oc1ccc(-c3ccc(-c4cn[nH]c4)cc3O)nn1)C2 (single isomer, unassigned) [147-ENT2] | 7.82 to 11.00 | 7.82 to 11.00 | 7.82 to 11.00 | 71 | 80 | 13 | 4.46 | 58.1 |  |  | 
11 | Cn1ccc2cc(O)c(-c3ccc(O[C@H]4C[C@@H]5CCC[C@@H](N5)[C@H]4F)nn3)cc2c1=O (single isomer, unassigned) [128-ENT1] | 7.00 to 7.29 | 7.00 to 7.29 | 7.30 to 7.80 |  |  | 7 | 5.27 | 38.6 | 11 | 5.78 10^−6, cm/s | 65.2 10^−6, cm/s
12 | Cn1c(=O)oc2cc(-c3ccc(O[C@@H]4C[C@H]5CCC[C@H](N5)[C@@H]4F)nn3)c(O)cc21 (single isomer, unassigned) [74-ENT1] | 6.30 to 7.00 | 5.00 to 6.30 | 5.00 to 6.30 | 96 | 88 | 4 | 5.6 | 22.8 |  |  | 
13 | Oc1cc(-c2ccn3ccnc3c2)ccc1-c1ccc(O[C@H]2C[C@@H]3CCC[C@@H](N3)[C@H]2F)nn1 (single isomer, unassigned) [83-ENT2] | 5.00 to 6.30 | 5.00 to 6.30 | 6.30 to 7.00 | 47 | 66 | 12 | 0.77 | 9.61 |  |  | 
14 | Oc1cc(-c2cn[nH]c2)ccc1-c1ccc(O[C@@H]2C[C@H]3C[C@H](F)C[C@@H](C2)N3)nn1 [compound 113, 2-(6-(((1R,3r,5S,7s)-7-fluoro-9-azabicyclo[3.3.1]nonan-3-yl)oxy)pyridazin-3-yl)-5-(1H-pyrazol-4-yl)phenol] | 7.82 to 11.00 | 7.82 to 11.00 | 7.82 to 11.00 | 86 | 88 | 54 | 1.01 | 54.2 |  |  | 
15 | Cn1ccc2cc(-c3ccc(O[C@@H]4C[C@@]5(C)CC[C@](C)(N5)[C@@H]4F)nn3)c(O)cc2c1=O (single isomer, unassigned) [127-ENT2] | 7.00 to 7.29 | 7.30 to 7.80 | 7.30 to 7.80 | 89 | 103 | 6 | 9.29 | 55.3 |  |  | 
16 | Cn1cc(-c2cc(O)c(-c3ccc(O[C@H]4C[C@@H]5CC[C@@H](N5)[C@H]4F)nn3)cc2F)cn1 (single isomer, unassigned) [61-ENT2] | 7.30 to 7.80 | 7.82 to 11.00 | 7.82 to 11.00 | 36 | 71 | 3 | 4.5 | 12.2 |  |  | 
